Literature values as cited in patent publication US11622956B1, “Compound and method for treating diseases and disorders” (priority 2019, dated 2023).

Assays:
[1] = oral
ataxia = conditions: high levels of hemp-derived CBD
static ataxia = conditions: dogs, IV
joint pain = conditions: dogs

C=C(C)[C@@H]1CCC(C)=C[C@H]1c1c(O)cc(CCCCC)cc1O [CBD, Cannabidiol]
fraction of orally administered CBD ultimately absorbed, at best [1]: 15-20% | fraction of orally administered CBD ultimately absorbed, on average [1]: 5-10% | dogs with ataxia (ataxia): 2 of the 10

CCCCCc1cc(O)c2c(c1)OC(C)(C)[C@@H]1CCC(C)=C[C@@H]21 [THC, tetrahydrocannabinol]
dose producing static ataxia (static ataxia): > 0.5 mg/kg

COc1cccc(C2(O)CCCCC2CN(C)C)c1 (centres unmarked) [tramadol, Tramadol]
peak vertical force or vertical impulse versus placebo (joint pain): no improvement
